Experiments:
[1] = molecular target: PaFS (full-length fusicoccadiene synthase) (Diaporthe amygdali, UniProt A2PZA5); assay: EnzChek pyrophosphate release, steady-state kinetics, A360; assay type: biochemical; conditions: Mg2+ 2.5 mM, pH 7.5; cyclization to fusicoccadiene; cyclase domain
[2] = molecular target: PaFSCY (individual cyclase domain of fusicoccadiene synthase) (Diaporthe amygdali, UniProt A2PZA5); assay: as above; assay type: biochemical; conditions: Mg2+ 2.5 mM, pH 7.5; cyclization to fusicoccadiene
Chain of PaFSCY (individual cyclase domain of fusicoccadiene synthase) (A2PZA5 1-344): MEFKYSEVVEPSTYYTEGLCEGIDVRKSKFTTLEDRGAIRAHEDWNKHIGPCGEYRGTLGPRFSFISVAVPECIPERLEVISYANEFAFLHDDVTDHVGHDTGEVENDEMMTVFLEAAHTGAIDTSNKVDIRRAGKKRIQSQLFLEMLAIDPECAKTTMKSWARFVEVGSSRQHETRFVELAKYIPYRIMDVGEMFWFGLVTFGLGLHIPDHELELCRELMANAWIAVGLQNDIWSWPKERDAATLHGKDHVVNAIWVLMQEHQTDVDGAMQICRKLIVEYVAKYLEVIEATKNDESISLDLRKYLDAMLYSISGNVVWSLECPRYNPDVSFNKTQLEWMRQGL

Chain of PaFS (full-length fusicoccadiene synthase) (A2PZA5 whole entry, the tested form may be a part): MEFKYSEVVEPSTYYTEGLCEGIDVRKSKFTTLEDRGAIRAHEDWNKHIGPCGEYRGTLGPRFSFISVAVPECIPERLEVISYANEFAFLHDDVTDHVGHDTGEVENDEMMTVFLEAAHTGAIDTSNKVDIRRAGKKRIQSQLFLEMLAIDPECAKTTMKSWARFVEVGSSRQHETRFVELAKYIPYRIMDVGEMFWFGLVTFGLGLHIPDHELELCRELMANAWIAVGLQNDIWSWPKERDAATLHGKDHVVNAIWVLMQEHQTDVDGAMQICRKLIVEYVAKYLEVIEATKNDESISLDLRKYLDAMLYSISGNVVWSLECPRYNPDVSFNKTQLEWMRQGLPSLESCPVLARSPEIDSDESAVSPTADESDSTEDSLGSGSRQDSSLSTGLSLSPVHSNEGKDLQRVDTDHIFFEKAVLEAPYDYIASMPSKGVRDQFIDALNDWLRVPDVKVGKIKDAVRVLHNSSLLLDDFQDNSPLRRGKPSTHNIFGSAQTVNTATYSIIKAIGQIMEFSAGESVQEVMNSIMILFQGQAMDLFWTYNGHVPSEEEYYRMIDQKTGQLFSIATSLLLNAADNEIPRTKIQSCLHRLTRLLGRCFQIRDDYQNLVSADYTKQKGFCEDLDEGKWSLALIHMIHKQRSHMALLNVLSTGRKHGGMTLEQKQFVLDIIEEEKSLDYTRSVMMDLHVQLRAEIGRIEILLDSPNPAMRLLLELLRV

SMILES: CC(C)=CCC/C(C)=C/CC/C(C)=C/CC/C(C)=C/COP(=O)(O)OP(=O)(O)O [GGPP, geranylgeranyl diphosphate]
- KM [1]: (PaFS, PaFSLL, and PaFSCY) are most efficient
- KM [2]: (PaFS, PaFSLL, and PaFSCY) are most efficient
